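96-well plates; 48 h exposure; 5 concentrations. Endpoints by linear interpolation between flanking doses. Not reached: highest tested concentration assigned. GI50 = concentration required for 50% inhibition of growth. TGI denotes the concentration required for complete inhibition of growth.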 Where a SMILES comes first, the peptide text is derived from it. The star is where a group is joined. Boc = CC(C)(C)OC(=O)*; Bz = O=C(c1ccccc1)*
Key:
Experiment in all cases: DTP human tumour cell line panel, 48 h
[1] = test system: OVCAR-3 ovarian
[2] = test system: HCT-116 colon
[3] = test system: UO-31 renal
[4] = test system: M14 melanoma
[5] = test system: CCRF-CEM leukemia
[6] = test system: NCI/ADR-RES ovarian
[7] = test system: U251 CNS
[8] = test system: SK-OV-3 ovarian
[9] = test system: MDA-MB-231 breast

| SMILES | TGI [1] | TGI [2] | TGI [3] | TGI [4] | TGI [5] | TGI [6] | TGI [7] | TGI [8] | TGI [9] | GI50 [1] | GI50 [2] | GI50 [3] | GI50 [4] | GI50 [5] | GI50 [6] | GI50 [7] | GI50 [8] | GI50 [9] |
| --- | --- | --- | --- | --- | --- | --- | --- | --- | --- | --- | --- | --- | --- | --- | --- | --- | --- | --- |
| NC(Cc1ccc(S(=O)(=O)O)cc1)C(=O)NC(CCCCNC(=O)NCCCCC(NC(=O)C(N)Cc1ccc(S(=O)(=O)O)cc1)C(=O)NC(Cc1ccc(S(=O)(=O)O)cc1)C(=O)O)C(=O)NC(Cc1ccc(S(=O)(=O)O)cc1)C(=O)O (stereo not drawn) | > 100 µM | > 100 µM | > 100 µM | > 100 µM | > 100 µM | > 100 µM | > 100 µM | > 100 µM | > 100 µM | – | – | – | – | – | – | – | – | – |
| COc1cc2c[n+](C)c3c4cc(OC)c(OC)cc4c(OC)cc3c2cc1OC | > 34.6 µM | > 43.6 µM | > 100 µM | > 100 µM | > 100 µM | > 100 µM | > 51.8 µM | > 100 µM | 19.8 µM | – | – | – | – | – | – | – | – | – |
| COc1cc(Cc2cc3c(c(C(=O)O)c2Br)OCO3)cc(OC)c1OC | > 100 µM | > 100 µM | > 100 µM | > 100 µM | > 100 µM | > 100 µM | > 100 µM | > 100 µM | > 100 µM | – | – | – | – | – | – | – | – | – |
| CCC(C#N)(c1ccccc1)N(CCc1ccccc1)C(=O)c1ccccc1 (stereo not drawn) | > 100 µM | > 100 µM | > 100 µM | > 100 µM | > 100 µM | > 100 µM | > 100 µM | 82.7 µM | 52.2 µM | – | – | – | – | – | – | – | – | – |
| Cc1cc(N(CCC#N)CCC#N)ccc1/C(N=Nc1ccc(Cl)cc1)=N\NC(=O)c1cc(Cl)ccc1O | 66.2 µM | > 100 µM | > 100 µM | > 100 µM | > 100 µM | > 100 µM | > 100 µM | 97.9 µM | > 100 µM | – | – | – | – | – | – | – | – | – |
| CC(NC(=O)C(Cc1ccc(OC(=O)c2ccccc2)cc1)NC(=O)OC(C)(C)C)C(=O)NC(Cc1ccccc1)C(=O)NCC(N)=O (stereo not drawn) (Boc-Y(Bz)AFG-NH2; configuration not given here) | – | 91.6 µM | 35.2 µM | 34 µM | > 100 µM | > 100 µM | 35.1 µM | 39.4 µM | 36.5 µM | – | – | – | – | – | – | – | – | – |
| COc1cc(C2SCC(=O)N2c2cc(Cl)c(Cl)cc2Cl)cc(OC)c1OC (stereo not drawn) | > 100 µM | > 100 µM | > 100 µM | > 100 µM | 77.6 µM | > 100 µM | > 100 µM | > 100 µM | > 100 µM | – | – | – | – | – | – | – | – | – |
| Cc1c(C#N)c2nnn(-c3ccc(Cl)cc3)c(=O)n2c1-c1ccccc1 | 0.772 µM | 10.9 µM | > 51.3 µM | 14 µM | > 100 µM | 16 µM | 3 µM | 30 µM | 0.987 µM | – | – | – | – | – | – | – | – | – |
| NNC(=O)CSc1nc2ccc(I)cc2c(=O)n1Cc1ccccc1 | 54.9 µM | 43.2 µM | 35.4 µM | 40.4 µM | 19 µM | > 100 µM | 40.8 µM | 32.7 µM | 34.1 µM | – | – | – | – | – | – | – | – | – |
| CN(C)C(Cc1cnc[nH]1)C(=O)N1CCCC1C(N)=O (stereo not drawn) | > 100 µM | > 100 µM | > 100 µM | > 100 µM | > 100 µM | > 100 µM | > 100 µM | > 100 µM | > 100 µM | – | – | – | – | – | – | – | – | – |
| Brc1ccc2[nH]cc(-c3csc(-c4ccccn4)n3)c2c1 | > 38 µM | 50.9 µM | > 100 µM | > 100 µM | > 100 µM | > 100 µM | 36.4 µM | > 100 µM | > 75.4 µM | – | – | – | – | – | – | – | – | – |
| CC(=N\N)/C(C)=N/N=C(C)/C(C)=N/N=C(C)/C(C)=N/N=C(C)/C(C)=N/N | > 100 µM | > 100 µM | > 100 µM | > 100 µM | > 100 µM | > 100 µM | > 100 µM | > 100 µM | > 100 µM | – | – | – | – | – | – | – | – | – |
| O=c1sc2c(s1)SSSSS2 | > 50 µM | > 50 µM | > 50 µM | > 50 µM | 42.1 µM | > 50 µM | > 50 µM | > 50 µM | > 50 µM | – | – | – | – | – | – | – | – | – |
| O=C(CN1CCN(Cc2ccccc2)CC1)c1ccc2[nH]c(=O)oc2c1 | > 100 µM | > 100 µM | > 100 µM | > 100 µM | > 100 µM | > 100 µM | > 100 µM | > 100 µM | > 100 µM | – | – | – | – | – | – | – | – | – |
| Nc1cc2c3c(c1)Oc1cc(N)cc4c1C3c1c(cc(N)cc1O4)O2 | 51.6 µM | 75.5 µM | > 100 µM | > 100 µM | 81.5 µM | 26.9 µM | > 100 µM | > 100 µM | 53.8 µM | – | – | – | – | – | – | – | – | – |
| CC[C@@]1(N(C)C)C(=O)OCc2c1cc1n(c2=O)Cc2cc3ccccc3nc2-1 | > 100 µM | > 100 µM | 77 µM | > 100 µM | 96.3 µM | 51.9 µM | > 100 µM | 51.5 µM | > 100 µM | – | – | – | – | – | – | – | – | – |
| CCCCCC(C)(C)CCC(=O)OC1OC(COC2OC(COC3OC(CO)C(O)C(O)C3O)C(O)C(O)C2O)C(O)C(O)C1O (stereo not drawn) | > 100 µM | > 100 µM | > 100 µM | > 100 µM | > 100 µM | > 100 µM | > 100 µM | > 100 µM | > 100 µM | – | – | – | – | – | – | – | – | – |
| COc1cc2c(/C=C3/C(=O)N(C)c4ccccc43)c(Cl)[nH]c2cc1C | 0.929 µM | 7.02 µM | > 58.3 µM | 11.5 µM | > 26.8 µM | 2.67 µM | 1.57 µM | 0.629 µM | 3.68 µM | – | – | – | – | – | – | – | – | – |
| O=C(Nc1cccc(-n2ccc3c(NC(=O)c4ccccc4)nccc32)c1)c1ccc(N2CCOCC2)c(C(F)(F)F)c1 | 0.0504 µM | > 100 µM | 37.8 µM | > 100 µM | > 100 µM | > 51.4 µM | > 100 µM | 2.66 µM | 3.42 µM | 0.0233 µM | 0.0371 µM | 0.0537 µM | 0.0386 µM | 0.0618 µM | 0.0352 µM | 0.0474 µM | 0.0326 µM | 0.127 µM |
| OCC1OC(n2nc(-c3ccccc3)nc2-c2cnccn2)C(O)C(O)C1O (stereo not drawn) | > 100 µM | > 100 µM | > 100 µM | > 100 µM | > 100 µM | > 100 µM | > 100 µM | > 100 µM | > 100 µM | – | – | – | – | – | – | – | – | – |

Reference: PubChem BioAssay (NCI)
